Measurements as given in US20140128352A1, “COMPOUNDS AND METHODS FOR MODULATING MITOCHONDRIAL METABOLISM AND REACTIVE OXYGEN SPECIES PRODUCTION” (Buck Institute for Research on Aging, priority 2012, published 2014).
Entries after “also recorded” stand apart in the source; their conditions may differ. Values belong to the molecule of their own block, whether it stands above or below them.

Assays:
complex I = assay: Rate of NAD(P)H reduction via complex I versus observed ROS production; assay type: biochemical, rat; settings: 2.5 uM; succinate with low glutamate; FIG. 2B
Method: To compare candidate IQ ROS inhibitors with mitochondrial inhibitors known to disrupt complex I activity (e.g. rotenone) or oxidize the electron transport chain (e.g. the uncoupler FCCP), the rate of NAD(P)H reduction via complex I was measured when isolated mitochondria were provided with saturating concentrations of the complex II substrate succinate (5 mM) and subsaturating levels of glutamate (1 mM) to facilitate full activation of complex II by oxaloacetate removal. […] These conditions allow electron and proton fluxes through complex Ito reverse and be directed predominantly toward the matrix. Addition of succinate causes a rapid increase in the reduction state of the matrix NAD(P)H pool that can be monitored as described above. The rate of NAD(P)H reduction is therefore a measure of electron flux through complex I for which direct comparisons can be made under identical conditions to effects on rates of ROS production.

GPDH = target: T1, GPDH (Rattus norvegicus, UniProt P35571); assay: Retest of GPDH ROS production (expanded microplate panel / cuvette); assay type: biochemical; settings: microplate or cuvette
T1 construct: from tissue; host or cells: rat skeletal muscle mitochondria (Wistar, Harlan Laboratories)
T1 sequence (P35571 43-727): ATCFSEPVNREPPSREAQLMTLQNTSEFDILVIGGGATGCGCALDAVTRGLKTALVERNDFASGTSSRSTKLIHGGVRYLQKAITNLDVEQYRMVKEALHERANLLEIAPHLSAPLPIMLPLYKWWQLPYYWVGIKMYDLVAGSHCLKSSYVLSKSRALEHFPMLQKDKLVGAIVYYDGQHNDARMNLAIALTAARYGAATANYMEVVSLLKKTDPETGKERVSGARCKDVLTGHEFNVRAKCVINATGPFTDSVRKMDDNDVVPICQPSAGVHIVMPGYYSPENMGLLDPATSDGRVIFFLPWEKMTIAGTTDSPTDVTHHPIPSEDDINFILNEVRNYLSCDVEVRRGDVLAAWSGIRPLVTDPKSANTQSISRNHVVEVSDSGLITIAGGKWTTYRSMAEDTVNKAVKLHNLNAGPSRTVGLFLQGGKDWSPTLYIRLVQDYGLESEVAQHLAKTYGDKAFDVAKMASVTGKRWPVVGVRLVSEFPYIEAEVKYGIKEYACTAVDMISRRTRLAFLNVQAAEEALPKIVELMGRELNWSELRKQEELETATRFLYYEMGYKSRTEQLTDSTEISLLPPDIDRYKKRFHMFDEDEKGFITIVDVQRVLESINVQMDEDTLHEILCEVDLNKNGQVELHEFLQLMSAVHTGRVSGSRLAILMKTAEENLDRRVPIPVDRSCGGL
Method: Compounds identified as site-selective hits as well as structural analogs were re-sourced from ChemBridge and dissolved in DMSO as 80 mM stocks. Master Titration Plates were prepared manually by serially diluting 80 mM compound stocks between 0.08 and 80 mM on 96-well microplates. Four compounds were titrated in duplicate on each plate. Additional DMSO controls were interspersed across these plates to serve as local normalization controls during analysis since two-way median polishing was not appropriate. Just prior to use, compounds were diluted 100-fold with standard buffer (10X). The same known inhibitor positive controls were included on each plate as during high-throughput screening.
The five core ROS assays and single ΔΨm assay were carried out as in the initial high-throughput screen. In addition, several assays were included to help validate the specificity of the compounds for a given site of production. All compounds were titrated against separate assays targeting IQ ROS and IIIQo ROS using subsaturating (0.5 mM final) succinate. […] Specifically, ΔΨm was monitored separately with 5 mM succinate (in the presence of 4 μM rotenone) in addition to glutamate and malate as before. The use of different substrates was designed to reveal compounds that disrupt mitochondrial function in a substrate specific manner.
Most frequently, these changes involved the use of different substrates to supply electrons from an alternative entry point in the chain. If a site of ROS production is being targeted selectively by a compound, then in many cases the supply of electrons should not influence the effectiveness of this compound at suppressing ROS production. […]
The fluorescence values in each well were scaled in relation to the intra-plate DMSO and known inhibitor controls as in the high-throughput screen except that median values for local interspersed DMSO wells (3-6 wells) were used rather than just the 8 DMSO wells in columns 1 and 12. […]

mitochondrial GPDH = target: T2, mitochondrial GPDH (Rattus norvegicus, UniProt P35571); assay: Mitochondrial GPDH activity (DCPIP reduction); assay type: biochemical
T2 construct: The activity of GPDH in intact mitochondria (0.3 mg/mL) was measured; from tissue; host or cells: rat skeletal muscle mitochondria (Wistar, Harlan Laboratories)
T2 sequence (P35571 43-727): T1 sequence (P35571 43-727)

site IF = target: T3, site IF (Rattus norvegicus, UniProt Q5XIH3); assay: Relationship of site IF ROS production to steady state matrix NAD(P)H reduction; assay type: biochemical; settings: high NADH reduction (>90%)
T3 construct: freshly isolated muscle mitochondria were assayed; from tissue; host or cells: rat skeletal muscle mitochondria (Wistar, Harlan Laboratories)
T3 sequence (Q5XIH3 21-464 limits assumed): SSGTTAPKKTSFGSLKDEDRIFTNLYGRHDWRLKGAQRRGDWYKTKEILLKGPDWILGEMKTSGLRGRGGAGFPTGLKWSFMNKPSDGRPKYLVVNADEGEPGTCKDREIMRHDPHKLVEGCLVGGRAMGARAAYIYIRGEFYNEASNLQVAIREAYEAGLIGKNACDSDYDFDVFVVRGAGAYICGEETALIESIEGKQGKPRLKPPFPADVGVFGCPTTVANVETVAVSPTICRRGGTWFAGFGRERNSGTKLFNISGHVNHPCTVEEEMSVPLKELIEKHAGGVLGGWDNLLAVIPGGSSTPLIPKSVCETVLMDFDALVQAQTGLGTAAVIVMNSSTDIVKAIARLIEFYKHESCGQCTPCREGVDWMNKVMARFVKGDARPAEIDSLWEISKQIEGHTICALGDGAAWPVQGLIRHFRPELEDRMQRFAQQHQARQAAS
Method: The rate of ROS production from site IF is linked to the reduction state of the NAD(P)H pool in the mitochondrial matrix (Treberg et al., 2011; Quinlan et al, submitted). Therefore, to evaluate the mechanism of action of putative IF ROS inhibitors, the effect of candidate compounds on the relationship between site IF ROS production and NAD(P)H reduction was tested.

Structure (SMILES): O=[N+]([O-])c1ccc(Oc2ccc(S(=O)(=O)NC3CCCCC3)cc2)cc1 [Compound 4]
suppression of observed ROS before any sign of altered flux through CI to NADH (complex I): at least 45%

kinetics of inhibition of GPDH activity (mitochondrial GPDH): mixed inhibition kinetics | potency at inhibiting GPDH activity relative to Compound No. 46 (mitochondrial GPDH): at least 6 times
Structure (SMILES): O=C(O)CCC(=O)Nc1ccc(-c2nc3cc4ccccc4cc3[nH]2)cc1 [Compound 61]
effect on GPDH ROS on retesting (GPDH): more potent inhibitor of GPDH-specific ROS, ΔΨm, and respiration

effect on GPDH ROS on retesting (GPDH): progressively inhibited GPDH ROS
Structure (SMILES): O=C(O)CSc1cccc(C(=O)Nc2ccc(Br)cc2)c1 [Compound 47]

Structure (SMILES): Cc1ccc(C)c(CN(CCCN(C)C)CCCN(C)C)c1 [Compound 32]
ROS production from site IF in relation to NADH reduction (site IF): lowers the amount of ROS production from site IF as the matrix NADH pool becomes strongly reduced; also recorded: the expected ROS production was suppressed
